Results as given in US20120214818A1, “METHODS OF TREATING DIASTOLIC DYSFUNCTION AND RELATED CONDITIONS” (THE BOARD OF TRUSTEES OF THE UNIVERSITY OF ILLINOIS, priority 2009, published 2012).
“And” between values parts separate entries of the source, which are not always exact repeats. Equal values may be shown once.

Key:
[1] = system: dog model of chronic heart failure; settings: cited from earlier work
[2] = system: myofilaments of skinned left ventricular papillary fiber bundles; assay: Simultaneous tension and ATPase rate in skinned fiber bundles (second series); type: biochemical, mouse; settings: ranolazine 15 min; for Maximum ATPase: 20° C.; for Ktr, the rate constant for force redevelopment: in s-1 (unit assumed)
Protocol: We measured myofilament response to Ca^2+ under two experimental conditions as described in detail below. In a first series of experiments the skinned fiber bundles were mounted in a force measuring apparatus and sarcomere length (SL) was adjusted to 2.2 μm using a laser diffraction pattern and width and thickness were determined for calculation of cross-sectional area. Force was measured over a range of pCa values Skinned fiber bundles were treated with 10 μmol/L ranolazine for 15 min prior to evaluation. In a second series of experiments under different experimental conditions, we determined steady-state Mg-ATPase activity, while simultaneously measuring isometric tension in skinned fiber bundles as a function of pCa. In all experiments, skinned fibers were treated with ranolazine or DMSO vehicle for 15 min prior to beginning either tension or tension/ATPase rate measurements. Tension generated was computed from the force/cross-sectional area and data were analyzed in the GraphPad Prism software and fit with a sigmoidal modified Hill equation in order to generate tension-pCa curves, Hill coefficients, and pCa50 (pCa value at half-maximum tension). We also determined cross-bridge kinetics employing a quick release/restretch protocol. The rate constant for force redevelopment, Ktr, provides a measure of the rate of cross-bridge entry into the force generating state. In all experiments, only fiber bundles retaining more than 80% of their initial maximum tension were included in the analysis. We treated the fibers with ranolazine from a DMSO stock solution or DMSO alone added to relaxing solution for 15 min prior to the experimental run. Methods for gel electrophoresis analysis of myofilament protein phosphorylation and oxidative modifications are provided below.
Studies with detergent extracted (skinned) fiber bundles: Mice were anesthetized with pentobarbital (50 mg/kg IP), and the hearts were rapidly excised and rinsed in a pH 7.0 ice-cold relaxing solution (HR) composed of (in mM) 10 EGTA, 41.89K-Prop, 6.57 MgCl2, 100 BES, 6.22 ATP, 5 Na azide, and 10 creatine phosphate. The solution also contained 1 μg/ml leupeptin, 2.5 μg/ml pepstatin A, and 50 μM phenylmethylsulfonyl fluoride. Left ventricular papillary muscles were dissected and fiber bundles were prepared as previously described (Wolska et al., J. Physiol. 536: 863-870 (2001)). The fiber bundles were extracted overnight in relaxing solution plus 1% Triton X-100 at 4° C.
In a second series of experiments force and ATPase rate were measured simultaneously using methods and an experimental apparatus previously described (de Tombe et al., Circ Res 76: 734-741 (1995); Wolska et al., Circ Res 84: 745-751 (1999)). The fiber bundles were mounted between a force transducer and displacement motor using aluminum T-clips, and the sarcomere length was set to 2.2 μm using He—Ne laser diffraction (Vahebi et al., Circ Res 96: 740-747 (2005)). The width and diameter were each measured at three points along the fiber bundle. Force per cross-sectional area was used to determine tension. The fiber was contracted initially at a saturating calcium concentration (pCa 4.5) and sarcomere length was again adjusted to 2.2 μm. Sarcomere length remained constant throughout the rest of the experiment.
ATPase activity was measured at 20° C. as previously described and calibrated with rapid injections of ADP (0.5 nmol) with a motor-controlled syringe (de Tombe et al., 1990, supra; Wolska et al., 1999, supra). The fiber was placed in relaxing solution for 2 min, then in the preactivation solution for 2-3 min each time before being placed in the activating solution for 1-2 min (until stabilization of force) and then quickly returned to the relaxing solution. Various contraction-relaxation cycles were carried out using different ratios of total calcium concentration to total EGTA concentration. The final contraction was again at a saturating calcium concentration. […]

DOCA-salt and sham mice = assay: Invasive hemodynamic (pressure-volume catheter) assessment of diastolic dysfunction, acute ranolazine; type: in vivo, mouse; settings: for DBP, diastolic blood pressure / EDPVR, end diastolic pressure volume relationship (slope) / EF, ejection fraction (invasive) / ESPVR, end systolic pressure volume relationship / HR, heart rate / LVEDP, left ventricular end diastolic pressure / LVESP, left ventricular end systolic pressure / dP/dt max / dP/dt min: ranolazine 5 mg/kg i.v. then 4.8 mg/kg/h; for SBP, systolic blood pressure: ranolazine 5 mg/kg intravenous injection then infusion 4.8 mg/kg/h
Protocol: Generation of DOCA-salt mouse model: Previously, it was shown that this model leads to mild hypertension, myocardial oxidative stress, and diastolic dysfunction.^20 A gradual and mild elevation in blood pressure was induced by unilateral nephrectomy, subcutaneous implantation of a controlled release deoxycorticosterone acetate (DOCA) pellet (0.7 mg/d; Innovative Research of America, Sarasota, Fla.), and substituting drinking water with 1.05% saline. Control animals underwent a sham operation, had placebo pellet implantation, and received water without salt. Invasive assessment of diastolic dysfunction: Mice were anesthetized with 1-1.5% isoflurane and maintained at 37° C. The pressure-volume (PV) catheter was inserted into the right common carotid artery and advanced into the LV. […] Volume and parallel conductance calibration were performed as previously described.^20 Baseline hemodynamic measurements were obtained, and subsequently, the mice received an intravenous injection of ranolazine (5 mg/kg) followed by an infusion at 4.8 mg/kg/h, while additional hemodynamic measurements were recorded. Blood samples were obtained during the last five minutes of the procedure to determine the plasma ranolazine concentration. Previously, we have shown that this model leads to mild hypertension, myocardial oxidative stress, and diastolic dysfunction.^20 A gradual and mild elevation in blood pressure was induced by unilateral nephrectomy, subcutaneous implantation of a controlled release deoxycorticosterone acetate (DOCA) pellet (0.7 mg/d; Innovative Research of America, Sarasota, Fla.), and substituting drinking water with 1.05% saline. Control animals underwent a sham operation, had placebo pellet implantation, and received water without salt. Mice were anesthetized with 1-1.5% isoflurane and maintained at 37° C. The pressure-volume (PV) catheter was inserted into the right common carotid artery and advanced into the LV. […] Volume and parallel conductance calibration were performed as previously described.^20 Baseline hemodynamic measurements were obtained, and subsequently to determine the acute effect, the mice received an intravenous injection of ranolazine (5 mg/kg) followed by an infusion at 4.8 mg/kg/h, while additional hemodynamic measurements were recorded. Blood samples were obtained during the last five minutes of the procedure to determine the plasma ranolazine concentration.

In the case of `COc1ccccc1OCC(O)CN1CCN(CC(=O)Nc2c(C)cccc2C)CC1` (centres unmarked) [ranolazine], the LVEDP [1] is listed as “reduces LVEDP”, the “Maximum Tension” value ([2]; DOCA-salt fiber bundles) is listed as 27.19 ± 0.54 mN/mm^2 and the “Passive Tension” value ([2]; DOCA-salt fiber bundles) is listed as 0.68 ± 0.40 mN/mm^2. The “Tension Cost ΔATPase/ΔTension” value ([2]; DOCA-salt fiber bundles) was 10.8 ± 0.8, the “Maximum ATPase” value ([2]; DOCA-salt fiber bundles) was 326.9 ± 8.7 pmol/s/mg and the “Ktr, the rate constant for force redevelopment” value ([2]; DOCA-salt fiber bundles) was 11.0 ± 1.0. For the same compound, the “Maximum Tension” value ([2]; sham fiber bundles) was 36.80 ± 0.16 mN/mm^2, the “Passive Tension” value ([2]; sham fiber bundles) was 0.55 ± 0.33 mN/mm^2 and the “Tension Cost ΔATPase/ΔTension” value ([2]; sham fiber bundles) was 7.1 ± 0.4. For the same compound, the “Maximum ATPase” value ([2]; sham fiber bundles) was 302.0 ± 9.0 pmol/s/mg, the “Ktr, the rate constant for force redevelopment” value ([2]; sham fiber bundles) was 11.2 ± 0.5 and the “Pearson correlation coefficient of EDPVR with serum/plasma ranolazine levels” value (DOCA-salt and sham mice; DOCA-salt mice, n=6, p<0.05) was 0.70. For the same compound, the “DBP, diastolic blood pressure” value (DOCA-salt and sham mice; DOCA-salt mice) was 73 ± 2 mmHg, the “EDPVR, end diastolic pressure volume relationship (slope)” value (DOCA-salt and sham mice; DOCA-salt mice) was 0.17±0.01 mmHg/μL and the “EF, ejection fraction (invasive)” value (DOCA-salt and sham mice; DOCA-salt mice) was 67 ± 4%. For the same compound, the “ESPVR, end systolic pressure volume relationship” value (DOCA-salt and sham mice; DOCA-salt mice) was 4.1 ± 0.2 mmHg/μL, the “HR, heart rate” value (DOCA-salt and sham mice; DOCA-salt mice) was 588 ± 16 bpm and the “LVEDP, left ventricular end diastolic pressure” value (DOCA-salt and sham mice; DOCA-salt mice) was 3.5±0.4 mmHg and 3.6 ± 0.4 mmHg. For the same compound, the “LVESP, left ventricular end systolic pressure” value (DOCA-salt and sham mice; DOCA-salt mice) was 98 ± 3 mmHg, the dP/dt max (DOCA-salt and sham mice; DOCA-salt mice) was 12,495 ± 555 mmHg/sec and the dP/dt min (DOCA-salt and sham mice; DOCA-salt mice) was −12,211 ± 792 mmHg/sec. The “SBP, systolic blood pressure” value (DOCA-salt and sham mice; DOCA-salt mice) was 102 ± 3 mmHg, the “DBP, diastolic blood pressure” value (DOCA-salt and sham mice; sham mice) was 58 ± 2 mmHg and the “EDPVR, end diastolic pressure volume relationship (slope)” value (DOCA-salt and sham mice; sham mice) was 0.18±0.01 mmHg/μL. For the same compound, the “EF, ejection fraction (invasive)” value (DOCA-salt and sham mice; sham mice) was 73 ± 5%, the “ESPVR, end systolic pressure volume relationship” value (DOCA-salt and sham mice; sham mice) was 3.9 ± 0.5 mmHg/μL and the “HR, heart rate” value (DOCA-salt and sham mice; sham mice) was 620 ± 5 bpm. The “LVEDP, left ventricular end diastolic pressure” value (DOCA-salt and sham mice; sham mice) was 4.2 ± 0.5 mmHg, the “LVESP, left ventricular end systolic pressure” value (DOCA-salt and sham mice; sham mice) was 84 ± 3 mmHg and 85 ± 3 mmHg and the dP/dt max (DOCA-salt and sham mice; sham mice) was 12,032 ± 787 mmHg/sec. The dP/dt min (DOCA-salt and sham mice; sham mice) was −10,083 ± 685 mmHg/sec and the “SBP, systolic blood pressure” value (DOCA-salt and sham mice; sham mice) was 93 ± 3 mmHg.
